How the values were obtained:
[1] = xn = mol fraction of the nth substance listed; conditions: 100 kPa, Liquid
[2] = refractive index (Na D-line) (dimensionless); xn = mol fraction of the nth substance listed; conditions: 298.15 K, 100 kPa, Liquid, Standard Abbe refractometry

COS(=O)(=O)[O-].Cn1cc[n+](C)c1 [1,3-dimethylimidazolium methylsulfate] + O
[1]
Conditions	mass density, 298.15 K [kg/m3]	mass density, 313.15 K [kg/m3]	mass density, 328.15 K [kg/m3]	viscosity, 298.15 K [mPa·s]	viscosity, 313.15 K [mPa·s]	viscosity, 328.15 K [mPa·s]
x2 = 0	1329.12	1318.56	1308.13	77.7	41.68	25.21
x2 = 0.0497	1326.99	1316.44	1306.09	68.1	37.51	23.95
x2 = 0.1475	1322.81	1312.31	1301.96	53.6	30.44	19.85
x2 = 0.2128	1319.54	1309.03	1298.64	44.93	25.86	17.11
x2 = 0.3086	1313.75	1303.27	1292.81	35.23	20.76	13.79
x2 = 0.3869	1307.71	1297.25	1286.89	27.57	16.93	10.5
x2 = 0.4947	1296.97	1286.56	1276.22	19.55	12.41	8.521
x2 = 0.5959	1282.77	1272.39	1262.04	13.88	9.041	6.336
x2 = 0.6947	1262.17	1251.91	1240.95	9.599	6.368	4.518
x2 = 0.7966	1226.82	1216.82	1206.64	5.928	4.027	2.917
x2 = 0.8962	1162.06	1152.98	1143.43	2.925	2.069	1.548
x2 = 0.9485	1100.41	1092.64	1084.03	1.745	1.261	0.99

[2]
Conditions	refractive index
x2 = 0	1.48296
x2 = 0.0497	1.48187
x2 = 0.1475	1.47986
x2 = 0.2128	1.47824
x2 = 0.3086	1.47536
x2 = 0.3869	1.47252
x2 = 0.4947	1.46739
x2 = 0.5959	1.46071
x2 = 0.6947	1.45105
x2 = 0.7966	1.43485
x2 = 0.8962	1.40572
x2 = 0.9485	1.37848

CCO [ethanol] + COS(=O)(=O)[O-].Cn1cc[n+](C)c1
[1], x1 = 1
Conditions	mass density [kg/m3]	viscosity [mPa·s]
298.15 K	785.46	1.082
313.15 K	772	0.827
328.15 K	758.55	0.641

Conditions	refractive index
[2], x1 = 1	1.36023
